Molecular target: α-glucosidase
Test: pNPG hydrolysis at […] nm; Lineweaver-Burk kinetics
Assay type: biochemical, Saccharomyces cerevisiae

Compound: Cc1cc2c(C(C)C)c(O)c(O)c(C=O)c2c(O)c1-c1c(C)cc2c(C(C)C)c(O)c(O)c(C=O)c2c1O [GSP, gossypol]
- IC50: 670 ± 440 nM
